Values after ≈ are worked out from the molar mass of the structure shown.
Assays:
[1] = tested on: SK-OV-3 (ovarian cancer cell); experiment: Solid tumor cell growth inhibition, MTT, 72 h (Example 7); format: cell-based; conditions: Homo sapiens
How it was run: (§1)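 4000 cells/well in DMEM high glucose with 10% FBS pre-cultured 24 h at 37 °C, 5% CO2, then exposed to tetrandrine derivatives at various concentrations for 72 h. Viability measured by MTT, expressed as % of untreated control.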

[2] = tested on: Hela (human cervical cancer cell); experiment: as above; format: cell-based; conditions: Homo sapiens; 72 h, MTT, Hela
How it was run: as §1

[3] = tested on: U87 MG (malignant glioma cell); experiment: as above; format: cell-based; conditions: Homo sapiens, U-87 MG
How it was run: as §1

[4] = tested on: MGC 803 (human gastric cancer cell); experiment: as above; format: cell-based; conditions: Homo sapiens
How it was run: as §1

[5] = tested on: CNE (nasopharyngeal carcinoma cell); experiment: as above; format: cell-based; conditions: Homo sapiens
How it was run: as §1

[6] = tested on: Becap37 (human breast cancer cell); experiment: as above; format: cell-based; conditions: Homo sapiens; 72 h, MTT, Becap-37
How it was run: as §1

[7] = tested on: Huh7 (human liver cancer cell); experiment: as above; format: cell-based; conditions: Homo sapiens; 72 h, MTT, Huh-7
How it was run: as §1

[8] = tested on: RKO (human colon adenocarcinoma cell); experiment: as above; format: cell-based; conditions: Homo sapiens; 72 h, MTT, RKO
How it was run: as §1

[9] = tested on: A549 (human lung cancer); experiment: as above; format: cell-based; conditions: Homo sapiens; 72 h, MTT, A549
How it was run: as §1

[10] = tested on: RPMI8226 (multiple myeloma); experiment: Multiple myeloma cell growth inhibition, MTT, 72 h (Example 6); format: cell-based, human; conditions: Homo sapiens, RPMI-8226; 72 h, MTT, RPMI8226
How it was run: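 RPMI8226 cells (6000 per well) in RPMI 1640 with 10% FBS were exposed to a range of tetrandrine derivative concentrations for 72 h at 37 °C under 5% CO2. Viable cell concentration was then measured by MTT.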

[11] = tested on: K562/adr (drug-resistant, chronic myeloid leukemia, CML); experiment: Leukemia cell growth inhibition, MTT, 72 h (Example 5); format: cell-based, human; conditions: Homo sapiens, K562/Adr; 72 h, MTT
How it was run: (§2)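 Viable cell concentration is read by the MTT method after 72 hours of exposure. Cells (6000 per well, RPMI 1640 with 10% fetal bovine serum) receive the derivatives at a range of concentrations and are kept at 37° C under 5% CO2.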

[12] = tested on: H9 (acute lymphoblastic leukemia, ALL); experiment: as above; format: cell-based, human; conditions: Homo sapiens; 72 h, MTT
How it was run: as §2

[13] = tested on: Jurkat (acute lymphoblastic leukemia, ALL); experiment: as above; format: cell-based, human; conditions: Homo sapiens, Jurkat; 72 h, MTT
How it was run: as §2

[14] = tested on: Kasumi-1 (acute myeloid leukemia M2 type, AML-M2); experiment: as above; format: cell-based, human; conditions: Homo sapiens, Kasumi 1
How it was run: as §2

[15] = tested on: NB4 (acute promyelocytic leukemia, AML); experiment: as above; format: cell-based, human; conditions: Homo sapiens; 72 h, MTT
How it was run: as §2

[16] = tested on: PANC-1 (pancreatic cancer); experiment: Solid tumor cell growth inhibition, MTT, 72 h (Example 7); format: cell-based, human; conditions: Homo sapiens; 72 h, MTT, PANC-1
How it was run: as §1

[17] = tested on: CaES-17 (esophageal cancer cell); experiment: as above; format: cell-based, human; conditions: Homo sapiens, CaEs17; 72 h, MTT, CAES-17
How it was run: as §1

[18] = tested on: Hep-2 (laryngeal carcinoma); experiment: as above; format: cell-based, human; conditions: Homo sapiens; 72 h, MTT, Hep 2
How it was run: as §1

[19] = tested on: PC-3 (prostate cancer); experiment: as above; format: cell-based, human; conditions: Homo sapiens; 72 h, MTT, PC-3
How it was run: as §1

[20] = tested on: MG63 (osteosarcoma); experiment: as above; format: cell-based, human; conditions: Homo sapiens; 72 h, MTT, MG-63
How it was run: as §1

IC50 [1] | IC90 [1] | IC50 [2] | IC90 [2] | IC50 [3] | IC90 [3] | IC50 [4] | IC90 [4] | IC50 [5] | IC90 [5] | IC50 [6] | IC90 [6] | IC50 [7] | IC90 [7] | IC50 [8] | IC90 [8] | IC50 [9] | IC90 [9] | IC50 [10] | IC90 [10] | Structure (SMILES) | also measured
7.1 µg/mL (≈ 9.79 µM) | > 16 µg/mL | 1.07 µg/mL (≈ 1.48 µM) | 2.89 µg/mL (≈ 3.99 µM) | 2.86 µg/mL (≈ 3.95 µM) | 6.66 µg/mL (≈ 9.19 µM) | 2.87 µg/mL (≈ 3.96 µM) | 8 µg/mL (≈ 11 µM) | 1.6 µg/mL (≈ 2.21 µM) | 3.49 µg/mL (≈ 4.81 µM) | 3.5 µg/mL (≈ 4.83 µM) | 10.8 µg/mL (≈ 14.9 µM) | 2.31 µg/mL (≈ 3.19 µM) | 3.43 µg/mL (≈ 4.73 µM) | 0.89 µg/mL (≈ 1.23 µM) | 1.99 µg/mL (≈ 2.75 µM) | 8.4 µg/mL (≈ 11.6 µM) | > 16 µg/mL | 0.52 µg/mL (≈ 0.717 µM) | 2.81 µg/mL (≈ 3.88 µM) | COCC(C)OCc1c2c3c(c(OC)c1OC)Oc1cc4c(cc1OC)CCN(C)[C@H]4Cc1ccc(cc1)Oc1cc(ccc1OC)C[C@@H]3N(C)CC2 (some centres unmarked) [BS-TE-406] | IC50 [11]: 1.44 µg/mL (≈ 1.99 µM); IC90 [11]: 5.38 µg/mL (≈ 7.42 µM); IC50 [12]: 1.38 µg/mL (≈ 1.9 µM); IC90 [12]: 3.41 µg/mL (≈ 4.7 µM); IC50 [13]: 1.57 µg/mL (≈ 2.17 µM); IC90 [13]: 9.9 µg/mL (≈ 13.7 µM); IC50 [14]: 1.33 µg/mL (≈ 1.83 µM); IC90 [14]: 6.67 µg/mL (≈ 9.2 µM); IC50 [15]: 1.7 µg/mL (≈ 2.35 µM); IC90 [15]: 5.5 µg/mL (≈ 7.59 µM); IC50 [16]: 2.73 µg/mL (≈ 3.77 µM); IC90 [16]: 16 µg/mL (≈ 22.1 µM); IC50 [17]: 3.94 µg/mL (≈ 5.44 µM); IC90 [17]: 16.4 µg/mL (≈ 22.7 µM); IC50 [18]: 2.4 µg/mL (≈ 3.31 µM); IC90 [18]: 6.87 µg/mL (≈ 9.48 µM); IC50 [19]: 3.32 µg/mL (≈ 4.58 µM); IC90 [19]: 6.95 µg/mL (≈ 9.59 µM); IC50 [20]: 2.49 µg/mL (≈ 3.43 µM); IC90 [20]: 6.36 µg/mL (≈ 8.77 µM)
8 µg/mL (≈ 10.8 µM) | > 16 µg/mL | 1.49 µg/mL (≈ 2 µM) | 3.45 µg/mL (≈ 4.64 µM) | 1.09 µg/mL (≈ 1.47 µM) | 2.55 µg/mL (≈ 3.43 µM) | 2.15 µg/mL (≈ 2.89 µM) | 9.02 µg/mL (≈ 12.1 µM) | 1.32 µg/mL (≈ 1.77 µM) | 3.33 µg/mL (≈ 4.48 µM) | 1.9 µg/mL (≈ 2.55 µM) | 4.9 µg/mL (≈ 6.59 µM) | 1.13 µg/mL (≈ 1.52 µM) | 1.66 µg/mL (≈ 2.23 µM) | 0.26 µg/mL (≈ 0.35 µM) | 0.6 µg/mL (≈ 0.807 µM) | 5.5 µg/mL (≈ 7.39 µM) | 15.5 µg/mL (≈ 20.8 µM) | 0.26 µg/mL (≈ 0.35 µM) | 1.35 µg/mL (≈ 1.81 µM) | COc1ccc2cc1Oc1ccc(cc1)C[C@H]1c3cc(c(OC)cc3CCN1C)Oc1c(OC)c(OC)c(COCc3cccnc3)c3c1[C@H](C2)N(C)CC3 [BS-TE-411] | IC50 [11]: 0.79 µg/mL (≈ 1.06 µM); IC90 [11]: 3.59 µg/mL (≈ 4.83 µM); IC50 [12]: 1.23 µg/mL (≈ 1.65 µM); IC90 [12]: 2.5 µg/mL (≈ 3.36 µM); IC50 [13]: 1 µg/mL (≈ 1.34 µM); IC90 [13]: 8.5 µg/mL (≈ 11.4 µM); IC50 [14]: 0.75 µg/mL (≈ 1.01 µM); IC90 [14]: 3.58 µg/mL (≈ 4.81 µM); IC50 [15]: 0.7 µg/mL (≈ 0.941 µM); IC90 [15]: 2.6 µg/mL (≈ 3.5 µM); IC50 [16]: 2.29 µg/mL (≈ 3.08 µM); IC90 [16]: 8.92 µg/mL (≈ 12 µM); IC50 [17]: 2.76 µg/mL (≈ 3.71 µM); IC90 [17]: 11.8 µg/mL (≈ 15.8 µM); IC50 [18]: 2.15 µg/mL (≈ 2.89 µM); IC90 [18]: 5.69 µg/mL (≈ 7.65 µM); IC50 [19]: 2.41 µg/mL (≈ 3.24 µM); IC90 [19]: 5.56 µg/mL (≈ 7.47 µM); IC50 [20]: 1.26 µg/mL (≈ 1.69 µM); IC90 [20]: 3.07 µg/mL (≈ 4.13 µM)
